Data: US20230024096A1, “BIFUNCTIONAL COMPOUNDS FOR THE TREATMENT OF CANCER” (Hoffmann-La Roche Inc., priority 2019, published 2023)

Biological target: T1, SMARCA2 (Homo sapiens, UniProt P51531)
T1 construct: endogenous in cells; host or cells: HT1080 (CRISPR HiBiT knock-in clone, generated in house)
Experiment: SMARCA2 HiBiT degradation assay (cellular)
Assay type: cell-based
Settings: table head names A549; for DC50: 6 h incubation, HiBiT-tagged SMARCA2, luminescence read-out, read-out: HiBit A549 SMARCA2 IP (nM) 6 h; for Emax: A549, 6 h incubation, Emax = amount of residual protein remaining in the cell following compound treatment

T1 sequence (P51531 whole entry): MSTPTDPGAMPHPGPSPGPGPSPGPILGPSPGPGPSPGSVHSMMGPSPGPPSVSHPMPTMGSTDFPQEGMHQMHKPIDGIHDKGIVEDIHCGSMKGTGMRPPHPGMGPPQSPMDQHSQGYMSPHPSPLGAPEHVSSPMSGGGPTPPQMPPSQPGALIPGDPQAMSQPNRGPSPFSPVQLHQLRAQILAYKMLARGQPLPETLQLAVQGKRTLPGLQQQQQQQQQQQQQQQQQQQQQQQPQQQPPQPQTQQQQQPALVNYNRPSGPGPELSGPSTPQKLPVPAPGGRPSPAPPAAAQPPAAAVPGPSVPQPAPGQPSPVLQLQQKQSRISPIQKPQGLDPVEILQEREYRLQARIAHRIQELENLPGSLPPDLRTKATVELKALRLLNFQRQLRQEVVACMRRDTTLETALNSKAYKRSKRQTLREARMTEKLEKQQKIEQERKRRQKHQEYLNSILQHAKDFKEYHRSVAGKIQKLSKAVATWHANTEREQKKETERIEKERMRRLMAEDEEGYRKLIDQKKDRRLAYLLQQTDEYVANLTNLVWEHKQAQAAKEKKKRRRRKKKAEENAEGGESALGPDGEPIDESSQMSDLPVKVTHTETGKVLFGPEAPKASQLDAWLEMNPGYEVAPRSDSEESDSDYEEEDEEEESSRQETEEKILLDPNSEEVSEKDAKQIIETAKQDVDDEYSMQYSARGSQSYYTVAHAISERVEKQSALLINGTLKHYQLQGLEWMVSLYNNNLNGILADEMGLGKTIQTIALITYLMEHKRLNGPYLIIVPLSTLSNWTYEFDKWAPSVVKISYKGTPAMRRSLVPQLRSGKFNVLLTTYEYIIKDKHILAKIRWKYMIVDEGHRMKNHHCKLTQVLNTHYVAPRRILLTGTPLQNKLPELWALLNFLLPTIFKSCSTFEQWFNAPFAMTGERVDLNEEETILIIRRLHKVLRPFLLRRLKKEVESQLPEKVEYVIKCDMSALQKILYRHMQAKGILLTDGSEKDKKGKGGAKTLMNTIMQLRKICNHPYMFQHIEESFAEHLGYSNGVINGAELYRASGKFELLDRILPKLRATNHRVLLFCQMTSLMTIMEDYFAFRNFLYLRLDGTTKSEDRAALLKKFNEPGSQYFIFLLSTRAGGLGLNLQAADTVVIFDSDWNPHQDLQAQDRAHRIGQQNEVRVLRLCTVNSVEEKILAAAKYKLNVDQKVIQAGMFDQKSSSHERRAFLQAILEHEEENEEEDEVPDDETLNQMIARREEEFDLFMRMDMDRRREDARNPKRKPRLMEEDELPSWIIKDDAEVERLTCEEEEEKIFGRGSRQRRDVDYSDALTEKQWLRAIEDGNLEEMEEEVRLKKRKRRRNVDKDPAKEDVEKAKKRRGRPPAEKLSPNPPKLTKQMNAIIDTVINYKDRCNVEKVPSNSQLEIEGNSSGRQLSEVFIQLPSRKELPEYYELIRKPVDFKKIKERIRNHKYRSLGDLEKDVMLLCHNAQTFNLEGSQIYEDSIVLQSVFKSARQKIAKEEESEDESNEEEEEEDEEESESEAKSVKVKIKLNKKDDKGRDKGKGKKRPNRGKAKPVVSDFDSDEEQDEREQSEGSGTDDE

Row | SMILES | DC50 | Emax
1 | Nc1nnc(-c2ccccc2O)cc1N1CC2CCC(C1)N2c1cccc(OC2CCN(C(=O)CN3CCC(c4ccc(NC5CCC(=O)NC5=O)cc4)CC3)CC2)c1 (racemic) [Example 114, rac-3-[4-[1-[2-[4-[3-[3-[3-amino-6-(2-hydroxyphenyl)pyridazin-4-yl]-3,8-diazabicyclo[3.2.1]octan-8-yl]phenoxy]-1-piperidyl]-2-oxo-ethyl]-4-piperidyl]anilino]piperidine-2,6-dione] | 82 nM | 40%
2 | Nc1nnc(-c2ccccc2O)cc1N1CC2CCC(C1)N2c1cccc(OCCN2CCN(C(=O)CCNC(=O)C3CCN(c4ccc5c(c4)C(=O)N(C4CCC(=O)NC4=O)C5=O)CC3)CC2)c1 (racemic) [Example 42, rac-N-[3-[4-[2-[3-[3-[3-amino-6-(2-hydroxyphenyl)pyridazin-4-yl]-3,8-diazabicyclo[3.2.1]octan-8-yl]phenoxy]ethyl]piperazin-1-yl]-3-oxo-propyl]-1-[2-(2,6-dioxo-3-piperidyl)-1,3-dioxo-isoindolin-5-yl]piperidine-4-carboxamide] | 519 nM | 49%
3 | Nc1nnc(-c2ccccc2O)cc1O[C@@H]1CCCN(c2ccc(N3CCN(CCCCCCCCCn4cc(CNc5cccc6c5C(=O)N(C5CCC(=O)NC5=O)C6=O)nn4)CC3)cc2)C1 (stereo partly drawn) [Example 63, 4-[[1-[9-[4-[4-[(3R)-3-[3-amino-6-(2-hydroxyphenyl)pyridazin-4-yl]oxy-1-piperidyl]phenyl]piperazin-1-yl]nonyl]triazol-4-yl]methylamino]-2-(2,6-dioxo-3-piperidyl)isoindoline-1,3-dione] | 59 nM | 27%
4 | Nc1nnc(-c2ccccc2O)cc1N1CC(Oc2ccc(C(=O)N3CCN(C(=O)C4CCN(c5ccc6c(c5)C(=O)N(C5CCC(=O)NC5=O)C6=O)CC4)CC3)c(C(F)(F)F)c2)C1 (racemic) [Example 132, rac-5-[4-[4-[4-[1-[3-amino-6-(2-hydroxyphenyl)pyridazin-4-yl]azetidin-3-yl]oxy-2-(trifluoromethyl)benzoyl]piperazine-1-carbonyl]-1-piperidyl]-2-(2,6-dioxo-3-piperidyl)isoindoline-1,3-dione] | 133 nM | 44%
5 | Nc1nnc(-c2ccccc2O)cc1N1CC2CCC(C1)N2c1cccc(CC2CCN(C(=O)C3CCN(c4ccc5c(c4)C(=O)N(C4CCC(=O)NC4=O)C5=O)CC3)CC2)c1 (racemic) [Example 70, rac-5-[4-[4-[[3-[3-[3-amino-6-(2-hydroxyphenyl)pyridazin-4-yl]-3,8-diazabicyclo[3.2.1]octan-8-yl]phenyl]methyl]piperidine-1-carbonyl]-1-piperidyl]-2-(2,6-dioxo-3-piperidyl)isoindoline-1,3-dione] | 40 nM | 42%
6 | Nc1nnc(-c2ccccc2O)cc1N1CC2CCC(C1)N2c1cccc(OCCN2CCN(C(=O)CC3CCN(c4cccc5c4C(=O)N(C4CCC(=O)NC4=O)C5=O)CC3)CC2)c1 (racemic) [Example 15, rac-4-[4-[2-[4-[2-[3-[3-[3-amino-6-(2-hydroxyphenyl)pyridazin-4-yl]-3,8-diazabicyclo[3.2.1]octan-8-yl]phenoxy]ethyl]piperazin-1-yl]-2-oxo-ethyl]-1-piperidyl]-2-(2,6-dioxo-3-piperidyl)isoindoline-1,3-dione] | 35 nM | 52%
7 | Nc1nnc(-c2ccccc2O)cc1N1CC2CCC(C1)N2c1cccc(OCCN2CCN(C(=O)CCC(=O)N3CCC(Oc4ccc5c(c4)C(=O)N(C4CCC(=O)NC4=O)C5=O)CC3)CC2)c1 (racemic) [Example 10, rac-5-[[1-[4-[4-[2-[3-[3-[3-amino-6-(2-hydroxyphenyl)pyridazin-4-yl]-3,8-diazabicyclo[3.2.1]octan-8-yl]phenoxy]ethyl]piperazin-1-yl]-4-oxo-butanoyl]-4-piperidyl]oxy]-2-(2,6-dioxo-3-piperidyl)isoindoline-1,3-dione] | 58 nM | 49%
